ChEMBL document CHEMBL3808294, “Design, synthesis and anti-HIV activity of novel quinoxaline derivatives” (Eur J Med Chem, 2016)
≈ marks a conversion by molar mass, not a printed value.

Tests used:
Vero = experiment: Cytotoxicity against African green monkey Vero cells assessed as cell growth inhibition after 24 hrs by MTT assay; type: cell-based; conditions: Chlorocebus sabaeus
[1] = Cytotoxicity against human MT4 cells […] assessed as cell growth inhibition after 5 days by MTT assay; type: cell-based
[2] = system: Human immunodeficiency virus 1; experiment: Antiviral activity against HIV1 3B infected in human MT4 cells assessed as protection against virus-induced cytopathogenic effect after 5 days by MTT assay; type: functional, organism-based; conditions: for IC50: Human immunodeficiency virus 1, 3B, MT4, 120 h

Cc1ccc(-c2nc3cc(F)c(Cl)cc3nc2-c2ccc(C)cc2)cc1
IC50 (Vero): > 100 µg/mL
CC50 at 120 h [1]: 27.8 µg/mL (≈ 76.6 µM)
%max [2]: 4%
IC50 [2]: > 27.8 µg/mL

Nc1nc2cc(F)c(Cl)cc2nc1N
IC50 (Vero): > 100 µg/mL
CC50 at 120 h [1]: 38.5 µg/mL (≈ 181 µM)
%max [2]: 9%
IC50 [2]: > 38.4 µg/mL

Fc1cc2nccnc2cc1Cl
IC50 (Vero): 13.7 µg/mL (≈ 75 µM)
CC50 at 120 h [1]: 91.2 µg/mL (≈ 499 µM)
%max [2]: 3%
IC50 [2]: > 91.1 µg/mL

Cc1nc2cc(F)c(Cl)cc2nc1C
IC50 (Vero): > 100 µg/mL
CC50 at 120 h [1]: 49.7 µg/mL (≈ 236 µM)
%max [2]: 5%
IC50 [2]: > 49.7 µg/mL

Fc1cc2nc(-c3ccccc3)c(-c3ccccc3)nc2cc1Cl
IC50 (Vero): > 100 µg/mL
CC50 at 120 h [1]: 11.8 µg/mL (≈ 35.2 µM)
%max [2]: 3%
IC50 [2]: > 11.8 µg/mL

Fc1ccc(-c2nc3cc(F)c(Cl)cc3nc2-c2ccc(F)cc2)cc1
IC50 (Vero): > 100 µg/mL
CC50 at 120 h [1]: 15.4 µg/mL (≈ 41.7 µM)
%max [2]: 3%
IC50 [2]: > 15.4 µg/mL

COc1ccc(-c2nc3cc(F)c(Cl)cc3nc2-c2ccc(OC)cc2)cc1
IC50 (Vero): > 100 µg/mL
CC50 at 120 h [1]: 30.6 µg/mL (≈ 77.4 µM)
%max [2]: 1%
IC50 [2]: > 30.5 µg/mL

O=c1[nH]cnc2c1ncn2[C@H]1CC[C@@H](CO)O1 [DIDANOSINE]
IC50 [2]: 17.9 µg/mL (≈ 76 µM)

Nc1ccn([C@@H]2CS[C@H](CO)O2)c(=O)n1 [LAMIVUDINE]
CC50 at 120 h [1]: 20 µg/mL (≈ 87.2 µM)
IC50 [2]: 0.58 µg/mL (≈ 2.53 µM)

Cc1ccnc2c1NC(=O)c1cccnc1N2C1CC1 [NEVIRAPINE]
IC50 (Vero): > 100 µg/mL
IC50 [2]: 0.075 µg/mL (≈ 0.282 µM)

CC(=O)O[C@H]1C(=O)[C@@]2(C)[C@H]([C@H](OC(=O)c3ccccc3)[C@]3(O)C[C@H](OC(=O)[C@H](O)[C@@H](NC(=O)c4ccccc4)c4ccccc4)C(C)=C1C3(C)C)[C@]1(OC(C)=O)CO[C@@H]1C[C@@H]2O [PACLITAXEL]
IC50 (Vero): > 100 µg/mL

Cc1cn([C@H]2C[C@H](N=[N+]=[N-])[C@@H](CO)O2)c(=O)[nH]c1=O [ZIDOVUDINE]
CC50 at 120 h [1]: 2 µg/mL (≈ 7.48 µM)
IC50 [2]: 0.002 µg/mL (≈ 0.00748 µM)
